# Results published in patent US9663496B2, “AMPK-activating heterocyclic compounds and methods for using the same” (Rigel Pharmaceuticals, Inc., priority 2010, dated 2017).
# pEC50: −log10 of the molar value.
# Molecular target: AMPK
# Assay: AMPK activation, enzyme-linked immunosorbent assay
# Format: biochemical
# Conditions: EC50 for AMPK activation, ELISA
# In short: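 Read-out: immunodetected kinase activation after compound exposure, run with commercial kit reagents.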
row,Compound,pEC50
1,"O=C(NC1CCN(Cc2ccc(OC(F)(F)F)cc2)CC1)c1ccc(C(=O)N2CCC(C(=O)c3ccc(N4CCCC4)cc3)CC2)nc1 [Compound 440, 6-(4-(4-(pyrrolidin-1-yl)benzoyl)piperidine-1-carbonyl)-N-(1-(4-(trifluoromethoxy)benzyl)piperidin-4-yl)nicotinamide]",> 6.30
2,"O=C(NC1CCN(Cc2cccc(OC(F)(F)F)c2)CC1)c1ccc(C(=O)N2CCC(C(=O)c3ccc(N4CCCC4)cc3)CC2)nc1 [Compound 441, 6-(4-(4-(pyrrolidin-1-yl)benzoyl)piperidine-1-carbonyl)-N-(1-(3-(trifluoromethoxy)benzyl)piperidin-4-yl)nicotinamide]",> 6.30
3,"N#Cc1ccc(O[C@H]2CC[C@@H](NC(=O)c3ccc(C(=O)N4CCC(C(=O)c5ccc(N6CCCC6)cc5)CC4)nc3)CC2)cc1 [Compound 442, N-((cis)-4-(4-cyanophenoxy)cyclohexyl)-6-(4-(4-(pyrrolidin-1-yl)benzoyl)piperidine-1-carbonyl)nicotinamide]",> 6.30
4,"COc1ccc(CN2CCC(NC(=O)c3ccc(C(=O)N4CCC(C(=O)c5ccc(N6CCCC6)cc5)CC4)nc3)CC2)cc1F [Compound 443, N-(1-(3-fluoro-4-methoxybenzyl)piperidin-4-yl)-6-(4-(4-(pyrrolidin-1-yl)benzoyl)piperidine-1-carbonyl)nicotinamide]",> 6.30
5,"O=C(NC1CCN(Cc2ccc(N3CCCC3)cc2)CC1)c1ccc(C(=O)N2CCC(C(=O)c3ccc(N4CCCC4)cc3)CC2)nc1 [Compound 444, 6-(4-(4-(pyrrolidin-1-yl)benzoyl)piperidine-1-carbonyl)-N-(1-(4-(pyrrolidin-1-yl)benzyl)piperidin-4-yl)nicotinamide]",> 6.30
6,"CC(C)Oc1ccc(CN2CCC(NC(=O)c3ccc(C(=O)N4CCC(C(=O)c5ccc(N6CCCC6)cc5)CC4)nc3)CC2)cc1 [Compound 446, N-(1-(4-isopropoxybenzyl)piperidin-4-yl)-6-(4-(4-(pyrrolidin-1-yl)benzoyl)piperidine-1-carbonyl)nicotinamide]",> 6.30
7,"N#Cc1ccc(CN2CCC(NC(=O)c3ccc(C(=O)N4CCC(C(=O)c5ccc(N6CCCC6)cc5)CC4)nc3)CC2)cc1F [Compound 447, N-(1-(4-cyano-3-fluorobenzyl)piperidin-4-yl)-6-(4-(4-(pyrrolidin-1-yl)benzoyl)piperidine-1-carbonyl)nicotinamide]",> 6.30
8,"N#Cc1ccc(CN2CCC(NC(=O)c3ccc(C(=O)N4CCC(Oc5ccc(NS(=O)(=O)C6CC6)cc5)CC4)nc3)CC2)cc1 [Compound 448, N-(1-(4-cyanobenzyl)piperidin-4-yl)-6-(4-(4-(cyclopropanesulfonamido)phenoxy)piperidine-1-carbonyl)nicotinamide]",5.30 to 6.00
9,"O=C(Nc1ccc(Oc2ccc(F)cc2)nc1)c1ccc(C(=O)N2CCC(Oc3ccc(NS(=O)(=O)C4CC4)cc3)CC2)nc1 [Compound 449, 6-(4-(4-(cyclopropanesulfonamido)phenoxy)piperidine-1-carbonyl)-N-(6-(4-fluorophenoxy)pyridin-3-yl)nicotinamide]",5.30 to 6.00
10,"N#Cc1ccc(CN2CCC(NC(=O)c3ccc(C(=O)N4CCC(Oc5ccc(S(=O)(=O)C(F)(F)F)cc5)CC4)nc3)CC2)cc1 [Compound 450, N-(1-(4-cyanobenzyl)piperidin-4-yl)-6-(4-(4-(trifluoromethylsulfonyl)phenoxy)piperidine-1-carbonyl)nicotinamide]",> 6.30
11,"COc1ccc(C(=O)C2CCN(C(=O)c3ccc(C(=O)N[C@@H]4CCN(Cc5ccc(C#N)cc5)C[C@H]4F)cn3)CC2)cc1 [Compound 452, N-((3R,4R)-1-(4-cyanobenzyl)-3-fluoropiperidin-4-yl)-6-(4-(4-methoxybenzoyl)piperidine-1-carbonyl)nicotinamide]",> 6.30
12,"COc1ccc(C(=O)C2CCN(C(=O)c3ccc(C(=O)N[C@H]4CCN(Cc5ccc(C#N)cc5)C[C@@H]4F)cn3)CC2)cc1 [Compound 453, N-((3S,4S)-1-(4-cyanobenzyl)-3-fluoropiperidin-4-yl)-6-(4-(4-methoxybenzoyl)piperidine-1-carbonyl)nicotinamide]",> 6.30
13,"O=C(NC1CCN(Cc2ccc(OC(F)(F)F)cc2)CC1)c1ccc(C(=O)N2CCC(Oc3ccc(C(=O)C4CC4)cc3)CC2)nc1 [Compound 455, 6-(4-(4-(cyclopropanecarbonyl)phenoxy)piperidine-1-carbonyl)-N-(1-(4-(trifluoromethoxy)benzyl)piperidin-4-yl)nicotinamide]",> 6.30
14,"N#Cc1ccc(CN2CCC(NC(=O)c3ccc(C(=O)N4CCC(Oc5ccc(C(=O)C6CC6)cc5)CC4)nc3)CC2)cc1 [Compound 456, N-(1-(4-cyanobenzyl)piperidin-4-yl)-6-(4-(4-(cyclopropanecarbonyl)phenoxy)piperidine-1-carbonyl)nicotinamide]",> 6.30
15,"O=C(Nc1ccc(Oc2ccc(F)cc2)nc1)c1ccc(C(=O)N2CCC(Oc3ccc(C(=O)C4CC4)cc3)CC2)nc1 [Compound 457, 6-(4-(4-(cyclopropanecarbonyl)phenoxy)piperidine-1-carbonyl)-N-(6-(4-fluorophenoxy)pyridin-3-yl)nicotinamide]",> 6.30
16,"COc1ccc(CN2CCC(NC(=O)c3ccc(C(=O)N4CCC(Oc5ccc(C(=O)C6CC6)cc5)CC4)nc3)CC2)cc1 [Compound 458, 6-(4-(4-(cyclopropanecarbonyl)phenoxy)piperidine-1-carbonyl)-N-(1-(4-methoxybenzyl)piperidin-4-yl)nicotinamide]",> 6.30
17,"CS(=O)(=O)c1ccc(OC2CCN(C(=O)c3ccc(C(=O)Nc4ccc(Oc5ccc(C#N)cc5)nc4)cn3)CC2)cc1 [Compound 459, N-(6-(4-cyanophenoxy)pyridin-3-yl)-6-(4-(4-(methylsulfonyl)phenoxy)piperidine-1-carbonyl)nicotinamide]",> 6.30
18,"COc1ccc(C(=O)C2CCN(C(=O)c3ccc(C(=O)Nc4ccc(Oc5ccc(C#N)cc5)nc4)cn3)CC2)cc1 [Compound 460, N-(6-(4-cyanophenoxy)pyridin-3-yl)-6-(4-(4-methoxybenzoyl)piperidine-1-carbonyl)nicotinamide]",> 6.30

# The next lines start with the values.
row,pEC50,Compound
1,> 6.30,"COc1ccc(C(=O)C2CCN(C(=O)c3ccc(C(=O)Nc4ccc(Oc5ccc(C(C)=O)cc5)nc4)cn3)CC2)cc1 [Compound 462, N-(6-(4-acetylphenoxy)pyridin-3-yl)-6-(4-(4-methoxybenzoyl)piperidine-1-carbonyl)nicotinamide]"
2,> 6.30,"N#Cc1ccc(Oc2ccc(NC(=O)c3ccc(C(=O)N4CCC(C(=O)c5ccc(F)cc5F)CC4)nc3)cn2)cc1 [Compound 463, N-(6-(4-cyanophenoxy)pyridin-3-yl)-6-(4-(2,4-difluorobenzoyl)piperidine-1-carbonyl)nicotinamide]"
3,> 6.30,"CC(=O)c1ccc(Oc2ccc(NC(=O)c3ccc(C(=O)N4CCC(C(=O)c5ccc(F)cc5F)CC4)nc3)cn2)cc1 [Compound 464, N-(6-(4-acetylphenoxy)pyridin-3-yl)-6-(4-(2,4-difluorobenzoyl)piperidine-1-carbonyl)nicotinamide]"
4,> 6.30,"COc1ccc(C(=O)C2CCN(C(=O)c3ccc(C(=O)Nc4ccc(Oc5ccc(S(C)(=O)=O)cc5)nc4)cn3)CC2)cc1 [Compound 465, 6-(4-(4-methoxybenzoyl)piperidine-1-carbonyl)-N-(6-(4-(methylsulfonyl)phenoxy)pyridin-3-yl)nicotinamide]"
5,> 6.30,"CS(=O)(=O)c1ccc(Oc2ccc(NC(=O)c3ccc(C(=O)N4CCC(C(=O)c5ccc(F)cc5F)CC4)nc3)cn2)cc1 [Compound 466, 6-(4-(2,4-difluorobenzoyl)piperidine-1-carbonyl)-N-(6-(4-(methylsulfonyl)phenoxy)pyridin-3-yl)nicotinamide]"
6,5.30 to 6.00,"COc1ccc(C(=O)C2CCN(C(=O)c3ccc(C(=O)Nc4ccc(S(=O)(=O)c5ccc(F)cc5)nc4)cn3)CC2)cc1 [Compound 467, N-(6-(4-fluorophenylsulfonyl)pyridin-3-yl)-6-(4-(4-methoxybenzoyl)piperidine-1-carbonyl)nicotinamide]"
7,> 6.30,"COc1ccc(C(=O)C2CCN(C(=O)c3ccc(C(=O)Nc4ccc(Oc5ccc(C#N)cc5)cn4)cn3)CC2)cc1 [Compound 468, N-(5-(4-cyanophenoxy)pyridin-2-yl)-6-(4-(4-methoxybenzoyl)piperidine-1-carbonyl)nicotinamide]"
8,> 6.30,"N#Cc1ccc(Oc2ccc(NC(=O)c3ccc(C(=O)N4CCC(C(=O)c5ccc(F)cc5F)CC4)nc3)nc2)cc1 [Compound 469, N-(5-(4-cyanophenoxy)pyridin-2-yl)-6-(4-(2,4-difluorobenzoyl)piperidine-1-carbonyl)nicotinamide]"
9,> 6.30,"O=C(NC1CCN(Cc2ccc(OC(F)(F)F)cc2)CC1)c1ccc(C(=O)N2CCC(S(=O)(=O)c3ccc(F)cc3)CC2)nc1 [Compound 470, 6-(4-(4-fluorophenylsulfonyl)piperidine-1-carbonyl)-N-(1-(4-(trifluoromethoxy)benzyl)piperidin-4-yl)nicotinamide]"
10,5.30 to 6.00,"N#Cc1ccc(CN2CCC(NC(=O)c3ccc(C(=O)N4CCC(S(=O)(=O)c5ccc(F)cc5)CC4)nc3)CC2)cc1 [Compound 471, N-(1-(4-cyanobenzyl)piperidin-4-yl)-6-(4-(4-fluorophenylsulfonyl)piperidine-1-carbonyl)nicotinamide]"
11,5.30 to 6.00,"N#Cc1ccc(Oc2ccc(NC(=O)c3ccc(C(=O)N4CCC(S(=O)(=O)c5ccc(F)cc5)CC4)nc3)cn2)cc1 [Compound 472, N-(6-(4-cyanophenoxy)pyridin-3-yl)-6-(4-(4-fluorophenylsulfonyl)piperidine-1-carbonyl)nicotinamide]"
12,5.30 to 6.00,"CC(=O)c1ccc(Oc2ccc(NC(=O)c3ccc(C(=O)N4CCC(S(=O)(=O)c5ccc(F)cc5)CC4)nc3)cn2)cc1 [Compound 473, N-(6-(4-acetylphenoxy)pyridin-3-yl)-6-(4-(4-fluorophenylsulfonyl)piperidine-1-carbonyl)nicotinamide]"
13,5.30 to 6.00,"COc1ccc(CN2CCC(NC(=O)c3ccc(C(=O)N4CCC(S(=O)(=O)c5ccc(F)cc5)CC4)nc3)CC2)cc1 [Compound 474, 6-(4-(4-fluorophenylsulfonyl)piperidine-1-carbonyl)-N-(1-(4-methoxybenzyl)piperidin-4-yl)nicotinamide]"
